In brackets after ≈: the same amount, converted by molar mass. One block for each molecule: values may come before it.
Columns and labels:
[1] = hydroxy radical scavenging, orthophenanthroline Fe2+ oxidation method; format: biochemical
Method: The first extract of lingonberry from Example 7, containing 5.2 wt % of anthocyanin, 22.3 wt % of proanthocyanin, and 0.5 wt % of resveratrol, was dissolved in double-distilled water and diluted into solutions in serial concentrations of 0.5, 0.25, 0.125, 0.0625, 0.03125, 0.015625, and 0.0078125 mg/ml. Ascorbic acid was likewise diluted to serial concentrations of 2, 1, 0.5, 0.25, 0.125, and 0.0625 mg/ml. The anti-oxidation effect of lingonberry extracts was confirmed by determining the hydroxyl radical (.OH) and the scavenging effect of the test drug on the hydroxy radical using the orthophenanthroline Fe^2+ oxidation method.
The total reaction volume was 4.7 ml, and thus the final concentrations of ascorbic acid solution were 0.851, 0.426, 0.213, and 0.106 mg/ml, while the final concentrations of lingonberry extract were 0.106, 0.053, 0.027, 0.013 mg/ml. Measurements were obtained for five samples in each group, and the scavenging rates of .OH were calculated and averaged. In order to verify the reliability of this method, ascorbic acid, a known .OH scavenging agent was used as a positive control when evaluating the scavenging effect of the lingonberry extract on hydroxy radicals during the experiment.
In the reaction system of these experiments, the aqueous solution of lingonberry extract could bind with hydroxy radicals generated in the Fenton reaction, thus reducing oxidation of Fe^2+ by hydroxy radicals. Its effect on scavenging hydroxy radicals was evaluated by determining the absorbance value of the reaction system.

[2] = tested on: yeast; conditions: by activating Sir2 enzymatic expression; cited from earlier work

- IC50, hydroxy radical scavenging ([1]; orthophenanthroline Fe2+ oxidation method): 0.3078 mg/mL (≈ 1750 µM)
Compound: O=C1O[C@H]([C@@H](O)CO)C(O)=C1O [ascorbic acid]
- •OH scavenging rate (d) ([1]; final concentration 0.106 mg/ml): 24.44 ± 2.32
- •OH scavenging rate (d) ([1]; final concentration 0.213 mg/ml): 25.55 ± 2.10
- •OH scavenging rate (d) ([1]; final concentration 0.426 mg/ml): 40.49 ± 1.33
- •OH scavenging rate (d) ([1]; final concentration 0.851 mg/ml): 91.92 ± 0.77

Compound: Oc1ccc(C=Cc2cc(O)cc(O)c2)cc1 [resveratrol]
- increase of life span [2]: about 70%
